The values that follow are results of earlier work, collected in patent publication US11666537B2, “Solid oral dosage form of irinotecan for the treatment of cancer” (Oncoral Pharma ApS, priority 2014, dated 2023).

The series concerns tumor cells. The settings on record: human and rodent tumor cell lines.

With `CCc1c2c(nc3ccc(O)cc13)-c1cc3c(c(=O)n1C2)COC(=O)[C@]3(O)CC` [SN-38], the “times more cytotoxic than irinotecan” value is 100-1000 times.
